Where a name gives a salt, the structure may show the parent alone. Read-outs that look alike come from different tables or passages of the source.
Key:
[1] = system: rats; experiment: Catalepsy in rats, “wall” test; conditions: i.p.; for induced catalepsy, SAR studies: compared with perphenazine (FIG. 2); for time course of catalepsy: over a period of 7 hours (FIGS. 4a, 4b)
Description: (§4) Animals: Young adult male rats (150-230 grams) were purchased from Harlan (Israel). Animals were divided 2-5/cage and housed in controlled conditions in the animal room for a week prior to the experiments. The experiments were conducted with naive animals, in a double blind procedure. In each experiment various treatment groups (about 5-10 animals each) were tested.
(§5) Catalepsy in rats: The manifestation of the extrapyramidal adverse effects induced by typical neuroleptics was evaluated by the appearance of stereotypic cataleptic behavior in rats following the neuroleptic treatment. Catalepsy was determined by two methods: (i) by measuring the time it took an animal hanging on a cage wall to move its hind legs and reach a flat surface (the “wall” test); and (ii) rats were placed on a flat surface with their anterior limbs leaning on a flat bar (5.5 cm height) resembling a piano playing position. Catalepsy was determined by the time it took an animal to descend and reach the flat surface (the “piano” test). The maximum time of follow up was 2 minutes and these measurements were performed hourly and individually for each animal. These tests provide an assessment of central dopamine (DA) blocking activity and are acceptable criteria for extrapyramidal symptoms induced by anti-psychotic drugs [10].
(§6) A control animals group was treated with the vehicle (lactic acid) only.

[2] = system: prolactin; experiment: Prolactin blood level in rats (enzyme immunometric assay); type: in vivo, rat; conditions: i.p.; measured at 0, 60 and 120 min after treatment
From the text: Prolactin secretion: Typical neuroleptics induce hyperprolactinemia, which is frequently associated with gallactorehea and impaired gonadal and sexual function. The measurement of the circulatory plasma prolactin level was therefore used as a sensitive biochemical marker for the psychotropic activity of the known neuroleptics and the chemical conjugates of the present invention, following intraperitoneal or oral administration thereof. Thus, blood was collected from the punctured eye orbital of rats under ether anesthesia and the assay was performed using Millennia, rat prolactin enzyme immunometric assay-kit (DPC, USA).

[3] = system: B16; experiment: Proliferation test, B16 melanoma cells; type: cell-based, murine; conditions: Mus musculus, B16; linear regression of survival percentage
Description: (§1) Cell lines: Human prostate carcinoma (PC-3), human colon carcinoma (HT-29), murine melanoma (B-16) and its drug resistant subclone (B-16 MDR), mouse fibroblasts (3T3), myeloid leukemia (HL 60) and its drug resistant subclone (HL 60 MX2), endometrium cell line (MES SA) and its drug resistant subclone (MES DX5), jurkat T lymphoma and monocyte leukemia (U-937), were used in this study.
(§2) Proliferation of cancer and normal cells: Proliferation was measured by neutral red assay or by a fluorometric assay quantitating DNA content. In the neutral red assay, the neutral red is absorbed by lysosomes, thus causing coloring of living cells. Quantitative analysis is performed by colorimetric assay (ELISA reader at 550 nm). In the fluorometric assay, alamar blue is used as a redox indicator. Alamar blue fluorescence was measured at an excitation wavelength of 544 nm and an emission wavelength of […] (FLUOstar BMG Lab Technologies, Offenburg, Germany).
(§3) The cells were sub-cultured and the tested compounds were added thereto in increasing concentrations. The IC50 values were determined by linear regression of the survival percentage of the cells.

[4] = system: B16 MDR; experiment: Proliferation test, B16 MDR cells; type: cell-based, murine; conditions: Mus musculus; linear regression of survival percentage
Description: as §1, §2, §3

[5] = system: HT-29; experiment: Proliferation test, HT-29 cells; type: cell-based; conditions: Homo sapiens, linear regression of survival percentage
Description: as §1, §2, §3

[6] = system: PC-3; experiment: Proliferation test, PC-3 cells; type: cell-based; conditions: Homo sapiens, linear regression of survival percentage
Description: as §1, §2, §3

[7] = system: Normal rat fibroblasts; experiment: Proliferation test, normal rat fibroblasts; type: cell-based; conditions: Fibroblast, linear regression of survival percentage
Description: The primary cultures of rat fibroblasts were obtained from neonatal rats using known procedures.
as §2, §3

[8] = system: HL 60 MX2 (MDR); experiment: Proliferation test, HL 60 MX2 (MDR) cells; type: cell-based; conditions: Homo sapiens, HL60/MX2; linear regression of survival percentage
Description: as §1, §2, §3

[9] = system: HL 60; experiment: Proliferation test, HL 60 cells; type: cell-based; conditions: Homo sapiens, linear regression of survival percentage
Description: as §1, §2, §3

[10] = system: 3T3; experiment: Proliferation test, 3T3 fibroblasts; type: cell-based; conditions: Mus musculus, NIH3T3; linear regression of survival percentage
Description: as §1, §2, §3

[11] = system: Jurkat T lymphoma cells; experiment: Proliferation / viability test, Jurkat T lymphoma cells; type: cell-based; conditions: Homo sapiens, linear regression of survival percentage, read-out: IC50, JURKAT
Description: as §1, §2, §3

[12] = system: MES SA DX5 (MDR); experiment: Proliferation test, MES SA DX5 (MDR) cells; type: cell-based; conditions: Homo sapiens, linear regression of survival percentage
Description: as §1, §2, §3

[13] = system: U-937; experiment: Proliferation test, U-937 cells; type: cell-based; conditions: Homo sapiens, linear regression of survival percentage
Description: as §1, §2, §3

[14] = system: MES SA; experiment: Proliferation test, MES SA cells; type: cell-based; conditions: Homo sapiens, linear regression of survival percentage
Description: as §1, §2, §3

[15] = system: rats; experiment: Behavioral criteria: sedation and mobility score in rats; conditions: i.p., 5 mg/kg perphenazine, 7.5 mg/kg fluphenazine or equimolar conjugate, score 0-3
Description: The effect of the administration of the tested compound on animals behavior was measured by evaluating the degree of animal sedation and mobility following the treatment described hereinabove, using a score of from 0 to 3. A score of 0 represents active and mobile animals, 1 represents calm and mobile animals, 2 represents calm and immobile animals and 3 represents completely ataxic and non-alert animals.

[16] = Stability upon prolonged storage (NMR); type: physicochemical; conditions: about 3 months storage; NMR spectroscopy
[17] = system: normal and transformed cells; experiment: Proliferation tests, summary over the tested cell lines; type: cell-based; conditions: read-out: IC50 range, anti-proliferative activity
Description: as §2, §3

[18] = system: C6 rat glioma cells; experiment: Chemosensitization in C6 rat glioma cells; type: cell-based; conditions: Cisplatin 5-50 μM, neutral red (FIG. 17)
Description: Chemosensitization: The chemosensitizing effect of perphenazine and its chemical conjugate AN 168 was measured in vitro. Various concentrations of perphenazine or AN 168 were co-administered together with a chemotherapeutic agent to either C6 rat glioma cells or to Jurkat T lymphoma cells. Cells viability and/or DNA fragmentation following treatment with either the chemotherapeutic agent, perphenazine, AN 168, a combination of the chemotherapeutic agent and perphenazine or a combination of a chemotherapeutic agent with AN 168 were measured as described hereinabove.

[19] = system: C6 rat glioma cells; experiment: DNA fragmentation in C6 rat glioma cells (propidium iodide flow cytometry); type: cell-based; conditions: Cisplatin 30 μM; perphenazine 25 and 50 μM; AN 168 25, 50 μM (FIG. 18)
Description: Apoptosis and DNA fragmentation: Fragmentation of cell nuclei was studied by flow cytometric analysis of propidium iodide-stained cells. This analysis was performed using a FACScan (Becton Dickinson, Mountain View, Calif.) equipped with an argon ion laser adjusted to an excitation wavelength of 480 nm and with a Doublet Discrimination Module (DDM). Lysis II (Becton Dickinson) software was used for data acquisition. Apoptotic nuclear changes were evaluated according to the criteria of Nicolletti et al..
The DNA fragmentation was determined by the propidium iodide flow cytometric method described hereinabove.

[20] = system: rats; conditions: male, rat, in vivo, ip
Description: as §4, §5, §6

[21] = system: rats; experiment: D-Amphetamine-induced hyperactivity in rats; type: in vivo, rat; conditions: GABA alone, 5 mg/kg i.p. (FIGS. 22-25)
Description: D-Amphetamine-induced hyperactivity in rats: The efficacy of the chemical conjugates of the present invention was studied using the D-amphetamine-induced hyperactivity and motility model, which is known as one of the most established animal models for schizophrenia.
Naïve Wistar male rats were placed in individual boxes. In each experiment 4 rats were studied. Perphenazine or equimolar doses of its chemical conjugate AN-168 were administered intraperitoneally (ip) to the rats 30 minutes prior to intraperitoneal administration of amphetamine (2.5 mg/kg), or 90 minutes prior to oral administration of amphetamine (2.5 mg/kg). The animals locomotor activity was assessed using two parameters: climbing attempts of the animal on the barrel walls (as big movements) and head movement of the animal (as small movements). Assessment was recorded every 15 minutes for two hours. Each animal was tested at each time point for 120 seconds.
The climbing behavior of the rats in each group was measured as described hereinabove.

[22] = 5 mg/kg perphenazine and equimolar conjugates
[23] = 5 mg/kg perphenazine, 7.5 mg/kg fluphenazine, equimolar conjugates, sum 0-420 min, normalized to parent drug (FIG. 3a)

SMILES: O=C(CCCc1ccccc1)OCCN1CCN(CCCN2c3ccccc3Sc3ccc(Cl)cc32)CC1 [AN-130, Perphenazine 4-Phenylbutyrate]
- total catalepsy ([1]; 5 mg/kg perphenazine and equimolar conjugates, sum of determinations at 0, 60, 120 min (FIG. 1a)): catalepsy was induced
- time at which prolactin blood level peaked [2]: 60 min
- IC50 [3]: 36.5 ± 8.1 µM
- IC50 [4]: 58 µM
- IC50 [5]: 17.3 ± 3.07 µM
- IC50 [6]: 52.9 ± 28.7 µM
- IC50 [7]: 41.9 ± 16.8 µM

SMILES: CCC(=O)OCCN1CCN(CCCN2c3ccccc3Sc3ccc(Cl)cc32)CC1 [AN-177, Perphenazine Propionate]
- IC50 [8]: 17.6 µM
- induced catalepsy, SAR studies [1, 22]: significant reduction of the induced catalepsy
- IC50 [9]: 15.1 µM
- IC50 [10]: 24.6 µM
- IC50 [5]: 25.8 µM

SMILES: CCCCC(=O)OCCN1CCN(CCCN2c3ccccc3Sc3ccc(Cl)cc32)CC1 [AN-178, Perphenazine Valerate]
- induced catalepsy, SAR studies [1, 22]: significant reduction of the induced catalepsy
- IC50 [10]: 18.6 µM
- IC50 [5]: 11.5 µM

SMILES: CCC(=O)OCCN1CCN(CCCN2c3ccccc3Sc3ccc(C(F)(F)F)cc32)CC1 [AN-179, Fluphenazine Propionate]
- IC50 [8]: 21.4 µM
- IC50 [9]: 18.2 µM

SMILES: CCCC(=O)OCCN1CCN(CCCN2c3ccccc3Sc3ccc(C(F)(F)F)cc32)CC1 [AN-180, Fluphenazine Butyrate]
- IC50 [8]: 18.8 µM
- total catalepsy [1, 23]: reduced catalepsy significantly
- time course of catalepsy [1]: lower catalepsy
- IC50 [9]: 19 µM
- IC50 [11]: 10.4 µM
- IC50 [12]: 12.7 µM
- IC50 [13]: 12.2 µM
- IC50 [14]: 12 µM
- sedation and mobility score, 30 min [15]: 1
- sedation and mobility score, 60 min [15]: 2
- sedation and mobility score, 90 min [15]: 3
- sedation and mobility score, 120 min [15]: 2
- sedation and mobility score, 180 min [15]: 1
- sedation and mobility score, 240 min [15]: 1

SMILES: CCCCC(=O)OCCN1CCN(CCCN2c3ccccc3Sc3ccc(C(F)(F)F)cc32)CC1 [AN-181, Fluphenazine Valerate]
- IC50 [8]: 16.7 µM
- IC50 [9]: 14.8 µM

SMILES: NCCCC(=O)OCCN1CCN(CCCN2c3ccccc3Sc3ccc(C(F)(F)F)cc32)CC1 [AN-187, fluphenazine 4-Aminobutyrate Trihydrochloride]
- IC50 [8]: 17.1 µM
- total catalepsy [1, 23]: reduced it considerably
- catalepsy at the end of the 7-hours period ([1]; equimolar to 7.5 mg/kg fluphenazine (FIG. 4b)): abolished at the end of the 7-hours period
- time course of catalepsy [1]: lower catalepsy
- IC50 [9]: 18.6 µM
- IC50 [11]: 10.3 µM
- stability upon prolonged storage [16]: does not tend to decompose upon a prolonged storage
- IC50 [12]: 9.47 µM
- time at which prolactin blood level peaked [2]: 60 min
- IC50 [13]: 18.9 µM
- IC50 [14]: 14.4 µM
- sedation and mobility score, 30 min [15]: 1
- sedation and mobility score, 60 min [15]: 2
- sedation and mobility score, 90 min [15]: 2
- sedation and mobility score, 120 min [15]: 2
- sedation and mobility score, 180 min [15]: 1
- sedation and mobility score, 240 min [15]: 1

SMILES: CCCC(=O)O [BA, butyric acid, reference compound]
- IC50 [17]: 1000 to 8000 µM
- IC50 [3]: 1300 ± 113 µM
- IC50 [4]: 8000 ± 546 µM
- IC50 [5]: 7170 ± 2030 µM
- IC50 [7]: 5540 µM

SMILES: N.N.[Cl][Pt][Cl] [Cisplatin, reference compound]
- cells viability, Cisplatin alone [18]: completely resistant
- DNA fragmentation [19]: no effect of DNA fragmentation

SMILES: OCCN1CCN(CCCN2c3ccccc3Sc3ccc(C(F)(F)F)cc32)CC1 [Fluphenazine, fluphenazine, reference compound]
- time at which prolactin blood level peaked [2]: 60 min
- time course of catalepsy [20]: displayed catalepsy during the measured 7 hours

SMILES: NCCCC(=O)O [GABA, γ-aminobutyric acid, reference compound]
- effect on amphetamine-induced climbing and head movement [21]: did not modify the effect of amphetamine

SMILES: O=C(O)CCCc1ccccc1 [PBA, 4-phenylbutyric acid]
- IC50 [17]: 2000 to 12000 µM

From patent publication US8168628B2, “Conjugated psychotropic drugs and uses thereof” (Ramot at Tel-Aviv University Ltd., priority 2001, dated 2012)
